# Tested on: Kontaktüberempfindlichkeit vom verzögerten Typ (Effektor-T-Lymphozyten-Aktivität)
# Test: Percutaneous test for contact hypersensitivity after DNFB immunisation
# Type: in vivo, Meerschweinchen (Albino-Koloniezucht)
# Details: Sensibilisierungsgrad versus control group; 2 mg/kg daily peroral, day +1 to +6; screening values; from 120 stimulatory, below 80 suppressive
# From the text: Der Nachweis einer immunregulatorischen Wirksamkeit wurde am Meerschweinchen (Albino-Koloniezucht) und u. a. mit Hilfe folgender Techniken geführt: • Perkutaner Test zum Nachweis einer Kontaktüberempfindlichkeit vom verzögerten Typ (Effektor-T-Lymphozyten-Aktivität), • Takatsy-Test zum Nachweis DNP-spezifischer Serumantikörper (humorale Immunantwort).
# Der Nachweis der antiviralen Wirksamkeit erfolgte in vitro an Hühnerembryonalzellen mit Vertretern verschiedener Virusgruppen. 1. Untersuchungen zur immunregulatorischen Wirksamkeit 1.1 Perkutaner Test zum Nachweis einer Kontaktüberempfindlichkeit Die epikutane Applikation von Dinitrofluorbenzol (DNFB) führt beim Meerschweinchen und bei der Maus zur Entwicklung einer verzögerten Überempfindlichkeit, eines Immunstatus, der an die klonale Vermehrung TNP-spezifischer T-Lymphozyten (TDTH-Ly) gebunden ist. Erfolgt nach einer Latenzperiode von mindestens 5 Tagen eine erneute DNFB-Applikation, kommt es zu einer Freisetzung von Lymphokinen durch Reaktion mit den TDTH-Ly dieses Hautbereiches und dadurch zu einer lokal begrenzten Entzündungsreaktion. Sieben Tage nach der Immunisierung mit 1 %igem DNFB wurden die Flanken der Versuchstiere enthaart und durch Aufbringen je eines Tropfens 0,5 %, 0,1 %, 0,05 %, 0,025 % und 0,01 %iger DNFB-Lösung getestet. Die noch positive Konzentration ist dem Grad der Sensibilisierung umgekehrt proportional. Die Testergebnisse ergeben sich aus Stärke und Anzahl der positiven Hautreaktionen, der Stimulierungsindex (SI) aus dem Vergleich der Test- und Kontrolltiere. Die Substanzbehandlung erfolgte peroral. Mittels Schlundsonde wurde eine tägliche Dosis von 2 mg/kg Körpermasse als Suspension in Wasser gegeben. Behandlungsdauer: 1 Tag + 1 (ein Tag nach der Immunisierung) bis +6. Die Kontrolltiere erhielten nur die eingesetzte Lactose. 1.2 Takatsy-Test Nach Immunisierung mit Dinitrofluorbenzol (DNFB) kommt es beim Meerschweinchen auch zur Bildung DNP-spezifischer humoraler Antikörper, die bevorzugt der IgG1-Substanzklasse angehören. 14 Tage nach primärer epikutaner Applikation von DNFB wurde den Versuchstieren Blut durch Herzpunktion entnommen. Die Bestimmung der Antikörperkonzentration erfolgte nach einer von Takatsy beschriebenen Methode (Takatsy, G.: A new method for the preparation of serial dilutions in a quick and accurate way. Kiserletes Orvostudomany 2 (1950) 263 - 396). Als Indikatorzellen wurden TNP-beladene Schaferythrozyten verwendet (Kopplung nach Rittenberg und Pratt; Rittenberg, M. B. and Pratt, K. L.: Antitrinitrophenyl (TNP) plaque assay. Primary response of BALB/c mice to soluble and particulate immunogen. Proc. Soc. exp. Biol. Med., 132 (1969) 575 - 579). 1.3 Ergebnisse Sensibilisierungsgrad (%) und Serumantikörperkonzentration (AK-Titer-Differenz) gegenüber der jeweiligen Kontrollgruppe (Screening-Werte)
# Aus den Werten wird deutlich, daß die Verbindungen der allgemeinen Formel I einen gut nachweisbaren Effekt auf die Effektor-T-Lymphozyten-abhängige verzögerte Uberempfindlichkeit haben. Kontaktdermatitis-Werte ab 120 (≙ 20 % Steigerung gegenüber der Kontrolle) bzw. unter 80 werden als Nachweis eines stimulatorischen bzw. suppressorischen Effektes angesehen. Antikörpertiter-Differenzen von >+1 bzw. <-1 verdeutlichen den stimulatorischen bzw. suppressorischen Effekt der Substanzen auf die humorale Immunantwort. 2. Untersuchungen zur immunstimulierenden Wirkung • 2.1 Plaque-Test zum Nachweis von SE-spezifischen IgM- und IgG-PBZ Zur Prüfung immunstimulierender Effekte wurde u. a. auch der Einfluß von Verbindungen der allgemeinen Formel I auf die humorale Immunantwort an Mäusen des Inzuchtstammes CBA und mittels Hämolyse-Plaque-Test (HPT) untersucht. Diese Technik erlaubt die quantitative und getrennte Erfassung IgM- und IgG-Antikörper produzierender Zellen (= Plaque bildende Zellen; PBZ). […]
structure (smiles),measurement,value
"COc1cc2[nH]c(=O)n(CCCS)c(=O)c2cc1OC [Beispiel 2, 3-(3-Mercaptoprop-1-yl)-6,7-dimethoxychinazolin-2,4(1H,3H)-dion]",Kontaktdermatitis (Kontrolle: 100) 24-Stunden-Reaktion,180%
